# According to patent US20120171123A1, “USES AND COMPOSITIONS FOR TREATMENT OF RHEUMATOID ARTHRITIS” (priority 2006, published 2012):
# Marks after values point to notes of the source that are not given here.
# Test system: MTX-naïve adult patients with active, early RA (<3 years)
# Assay: Study J: radiographic progression (TSS, joint erosion, joint space narrowing)
# Format: in vivo, human
# Source text: The co-primary endpoints, comparing MTX alone with the combination at 1 year, were the ACR50 response (using non-responder imputation), and inhibition of radiographic progression, as measured by change in total Sharp score (TSS). In this study, the term “Major Clinical Response” (MCR) meant a continuous ACR70 response for 6 or more consecutive months.
# At 1 and 2 years, the American College of Rheumatology (ACR) responses (ACR20, ACR50, and ACR70), the Disease Activity Score 28 (DAS28), and the change (Δ) in Total Sharp Score (TSS) were determined for all patients. Results were analyzed for the intention-to-treat (ITT) population using imputation for missing data. Clinical remission was defined as DAS28<2.6. The mean ΔTSS values at 1 year and 2 years (N=791) were determined for patients in each ACR response category (ACR20/50/70) and for patients with DAS28<2.6
# Radiographic progression was measured by Total Sharp Score (TSS) at baseline, and 1 and 2 years in the intention to treat population (ITT) using imputation for missing data. In this analysis, patients were divided into 1 of 2 categories by disease duration at baseline: <6 months (Group 1) or 6 months to 3 years (Group 2). Mean changes in TSS were reported for both groups by each of the 3 treatment arms from baseline to Year 1 and from Year 1 to Year 2.
# Radiographic progression was assessed by mean change from baseline in Total Sharp Score (TSS) and stratified into those with (ΔTSS>0.5) and without (Δ≦TSS 0.5). Patients were categorized as either having radiographic progression at 1 year (ΔTSS>0.5) or not (Δ≦TSS 0.5). A logistic regression model was used to identify predictors of radiographic disease progression by testing several baseline characteristics, including age, disease duration, RF status, TJC, SJC, joint erosions, and CRP. For analyses of CRP, patients were categorized as normal (CRP≦0.8 mg/dL) or abnormal (CRP>0.8 mg/dL).
# Mean change from baseline in Total Sharp Score (TSS) was measured at 6 months, 1 year, and 2 years in the intention-to-treat (ITT) population using imputation for missing data. Patients were classified as having radiographic progression (mean change in TSS>0.5) or without radiographic progression (ΔTSS≦0.5). Patients with inadequate data were excluded from this analysis.
# Patients in the Ada+MTX and the MTX arms were classified according to level of clinical response (non-responder (<ACR20), ACR20, ACR50, or ACR70) and radiographic progression (Yes or No (ΔTSS≦0.5)). The ΔTSS was analyzed overall, and for ACR subgroups. This included determination of mean ΔTSS and probability plots.
# Study J was a 2-year, double-blind, active comparator-controlled, Phase III study. […] For each patient, radiographs of hands and feet were taken at baseline, 6 months, 1 year and 2 years and evaluated for joint erosions (JE) and joint space narrowing (JSN) by 2 blinded radiologists. Changes from baseline in the modified total Sharp score (TSS, 0-398) were calculated for patients in each treatment arm. Cumulative probability plots were generated by estimating the probability of exceeding a given change in TSS. For each treatment, we calculated the percentages of patients whose ΔTSS exceeded specified thresholds, and the probability of having a given ΔTSS (using cumulative probability plots). For each of 4 cumulative probability ranges, 0-10%, 10-50%, 50-90% and 90-100% (higher numbered ranges=greater ΔTSS), mean ΔTSS values were calculated. In previous reports, Study J radiographic analyses employed linear imputation. In the present analysis, only observed data were employed, with no imputation.
# [1] = disease duration 6 months-3 years (n=333)
substance,measurement,setting,value
"adalimumab: human anti-TNF mAb (HUMIRA, Abbott Laboratories), described in U.S. Pat. No. 6,090,382 as D2E7",Mean change in TSS,"1 year, ACR20 responders",2.3
same,mean change in JE score,"1 year, ACR20 responders",1.0
same,mean change in JSN,"1 year, ACR20 responders",1.3
same,Mean change in TSS,"1 year, ACR50 responders",1.7
same,mean change in JE score,"1 year, ACR50 responders",0.8
same,mean change in JSN,"1 year, ACR50 responders",0.9
same,Mean change in TSS,"1 year, ACR70 responders",1.1
same,mean change in JE score,"1 year, ACR70 responders",0.5
same,mean change in JSN,"1 year, ACR70 responders",0.6
same,patients with no radiographic progression,"1 year, abnormal baseline CRP normalized at 1 year",53%
same,patients with no radiographic progression,"1 year, elevated CRP at both baseline and 1 year",32%
same,Mean change in TSS,"1 year, patients with DAS28<2.6",−0.1
same,% of patients with >4 change TSS,2 years,30.7%
same,% of patients with >10 change TSS,2 years,17.5%
same,% of patients with >20 change TSS,2 years,5.4%
same,patients with no radiographic progression (change in TSS ≦0.5),2 years,45%
same,mean change in JE score,"2 years, ACR20 responders",2.3
same,mean change in JSN,"2 years, ACR20 responders",2.2
same,mean change in TSS from baseline,"2 years, ACR20 responders",4.5
same,mean change in JE score,"2 years, ACR50 responders",1.5
same,mean change in JSN,"2 years, ACR50 responders",1.9
same,mean change in TSS from baseline,"2 years, ACR50 responders",3.4
same,mean change in JE score,"2 years, ACR70 responders",1.6
same,mean change in JSN,"2 years, ACR70 responders",1.9
same,mean change in TSS from baseline,"2 years, ACR70 responders",3.5
same,Mean change in TSS,"2 years, patients with DAS28<2.6",1.3
same,Mean change in TSS,"2 years, all points (0-100), observed data",4.7
same,Mean change in TSS,"2 years, cumulative probability range 0-10",−2.8
same,Mean change in TSS,"2 years, cumulative probability range 50-90",4.7^†
same,Mean change in TSS,"2 years, cumulative probability range 90-100",28.9
same,% of patients with >4 change TSS,6 months,0.5%
same,% of patients with >10 change TSS,6 months,6.5%
same,% of patients with >20 change TSS,6 months,10.6%
same,patients with no radiographic progression,6 months,63%
same,Mean change in TSS,"6 months, all points (0-100), observed data",2.1*
same,Mean change in TSS,"6 months, cumulative probability range 0-10",−3.4
same,Mean change in TSS,"6 months, cumulative probability range 90-100",13.6
same,Patients with No Radiographic Progression at 1 Year,CRP (BL and Year 1) Abnormal to Normal,53%*
same,Patients with No Radiographic Progression at 1 Year,CRP (BL and Year 1) Always Normal,91%
same,Patients with No Radiographic Progression at 1 Year,CRP (BL and Year 1) Never Normal,32%
same,"No Progression at Month 6, %",Study J,63%
same,"No Progression at Month 6, patients/total",Study J,172/271
same,"No Progression at Month 6 and Year 2, %",Study J,63%
same,"No Progression at Month 6 and Year 2, patients/Month-6 non-progressors",Study J,109/172
same,"Yr-2 Non-P, %",among Mo-6 Non-Progressors,63%
same,"Yr-2 Non-P, number of patients",among Mo-6 Non-Progressors,109
same,"Yr-2 Prog, %",among Mo-6 Non-Progressors,37%
same,"Yr-2 Prog, number of patients",among Mo-6 Non-Progressors,63
same,"Yr-2 Non-P, %",among Mo-6 Progressors,13 (13%)
same,"Yr-2 Non-P, number of patients",among Mo-6 Progressors,13 (13%)
same,"Yr-2 Prog, %",among Mo-6 Progressors,87%
same,"Yr-2 Prog, number of patients",among Mo-6 Progressors,86
same,mean change TSS during year 1,[1],2.4 sharp score units
same,mean change TSS during year 2,[1],3.2 sharp score units
same,mean change TSS during year 1,disease duration <6 months,3.4 sharp score units
same,mean change TSS during year 2,disease duration <6 months,2.1 sharp score units
same,"Mo-6 Non-Progressors, % of arm",no progression = ΔTSS≦0.5,63%
same,"Mo-6 Non-Progressors, number of patients",no progression = ΔTSS≦0.5,172
same,patients with no progression at year 2,no progression at month 6,63%
same,"Mo-6 Progressors, % of arm",progression = ΔTSS>0.5,37%
same,"Mo-6 Progressors, number of patients",progression = ΔTSS>0.5,99
same,patients with no progression at year 2,progression at month 6,13%
same,mean change from baseline in TSS,"week 26, ITT with imputation",2.1**
